Results published in US4198421A, “Antiinflammatory 2-substituted-dibenzo[2,3:6,7]oxepino[4,5-d]imidazoles” (E. I. Du Pont de Nemours and Company, priority 1978, dated 1980).
Read-outs that look alike come from different tables or passages of the source.

Tested on: adjuvant-induced arthritis
Experiment: Established Adjuvant-Induced Arthritis in Rats (A.A.)
Type: in vivo, Charles River Lewis male rats
Details: Rattus norvegicus, 168 h, read-out: A. A. ED50%
[1] = ED50% decrease from control paw volume (uninjected, left hind paw), established adjuvant-induced arthritis, oral gavage daily, 7 days, read by visual fit

## O=S(=O)(c1nc2c([nH]1)-c1ccc(F)cc1Oc1ccccc1-2)C(F)(F)C(F)F [Example 2, 10-Fluoro-2-[(1,1,2,2-tetrafluoroethyl)sulfonyl]-1H-dibenzo[2,3:6,7]oxepino[4,5-d]imidazole]
[1]
  ED50: 4.5 mg/kg

## Fc1ccc2c(c1)Oc1ccccc1-c1nc(SC(F)(F)C(F)F)[nH]c1-2 [1 (k), 10-Fluoro-2-[(1,1,2,2-tetrafluoroethyl)thio]-1H-dibenzo[2,3:6,7]oxepino[4,5-d]imidazole]
[1]
  ED50: < 27 mg/kg

## CCCCC1C(=O)N(c2ccccc2)N(c2ccccc2)C1=O [Phenylbutazone, phenylbutazone]
[1]
  ED50: 10 mg/kg

## COc1ccc2c(c1)c(CC(=O)O)c(C)n2C(=O)c1ccc(Cl)cc1 [Indomethacin, indomethacin]
po
  ED50: 0.3 mg/kg

## CC(C)Cc1ccc(C(C)C(=O)O)cc1 (centres unmarked) [Ibuprofen, ibuprofen]
[1]
  ED50: 100 mg/kg
